Laboratory results from paper PMC11600167 (JACS Au, 2024).

Legend:
Experiment in all cases: glycan microarray on Cu2O@Ag slides
Format in all cases: binding
[1] = target: T1, hGal-7 (human galectin-7) (Homo sapiens, UniProt P47929); conditions: immobilised glycan via azide linker; hGal-7 25 μg/mL
T1 construct: gene LGALS7; construct details only in supplement

[2] = target: T2, hGal-1 (human galectin-1) (Homo sapiens, UniProt P09382); conditions: immobilised glycan via azide linker; hGal-1 25 μg/mL
T2 construct: gene LGALS1; dimeric lectin; construct details only in supplement

[3] = target: T3, hGal-3 (human galectin-3) (Homo sapiens, UniProt P17931); conditions: immobilised glycan via azide linker; hGal-3 25 μg/mL
T3 construct: gene LGALS3; chimera-type galectin; construct details only in supplement
T3 sequence (P17931 2-250): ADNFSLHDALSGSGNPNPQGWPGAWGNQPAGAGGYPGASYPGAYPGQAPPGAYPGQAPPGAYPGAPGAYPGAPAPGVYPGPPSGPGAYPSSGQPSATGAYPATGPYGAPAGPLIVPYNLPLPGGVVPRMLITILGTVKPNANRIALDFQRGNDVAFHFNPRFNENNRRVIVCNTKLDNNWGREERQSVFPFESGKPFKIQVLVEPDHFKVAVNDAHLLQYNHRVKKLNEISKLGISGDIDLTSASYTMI

T2 sequence (P09382 2-135): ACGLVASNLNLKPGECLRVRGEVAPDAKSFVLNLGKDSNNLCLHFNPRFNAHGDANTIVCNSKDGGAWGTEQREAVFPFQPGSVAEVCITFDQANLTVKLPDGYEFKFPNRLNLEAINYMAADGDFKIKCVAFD
T1 sequence (P47929 whole entry): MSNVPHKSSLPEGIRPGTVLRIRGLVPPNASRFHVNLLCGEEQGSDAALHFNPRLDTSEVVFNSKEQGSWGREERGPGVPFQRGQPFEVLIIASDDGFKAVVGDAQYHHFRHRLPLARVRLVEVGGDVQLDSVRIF

Structure (SMILES)	glycan microarray on Cu2O@Ag slides [1]	glycan microarray on Cu2O@Ag slides [2]	glycan microarray on Cu2O@Ag slides [3]
CC(=O)N[C@H]1[C@H](O[C@H]2[C@@H](O)[C@@H](CO)O[C@@H](O[C@H]3[C@H](O)[C@@H](O)C(O)O[C@@H]3CO)[C@@H]2O)O[C@H](CO)[C@@H](O)[C@@H]1O[C@@H]1O[C@H](CO)[C@H](O)[C@H](O)[C@H]1O (stereo partly drawn) [LNT]	with LNT showing the strongest binding affinity	LNT and LNnT, respectively) further increased the binding affinity	–
CC(=O)N[C@H]1[C@H](O[C@H]2[C@@H](O)[C@@H](CO)O[C@@H](O[C@H]3[C@H](O)[C@@H](O)C(O)O[C@@H]3CO)[C@@H]2O)O[C@H](CO)[C@@H](O[C@@H]2O[C@H](CO)[C@H](O)[C@H](O)[C@H]2O)[C@@H]1O (stereo partly drawn) [LNnT]	–	–	The stronger affinity of LNnT compared to LNT
